Here are results for 34 compounds from the Deep4Chem optical property database.

The nature of one series: solvent given as SMILES. The following applies: in CO.
Turning to `CC1(C)CC(NCc2ccc3ccc4cccc5ccc2c3c45)CC(C)(C)N1[O]`, the emission maximum stood at 375 nm. Compound `CC1=C(c2cccs2)C(C)=[N+]2C1=C(c1ccc(OS(=O)(=O)c3ccc([N+](=O)[O-])cc3[N+](=O)[O-])cc1)c1c(C)c(-c3cccs3)c(C)n1[B-]2(F)F` yielded an emission maximum of 609 nm.

Regarding `NS(=O)(=O)c1ccc(N2N=C(c3ccc(O)cc3)CC2c2ccc(Br)cc2)cc1` (stereo not given), the emission maximum is reported as 432 nm. Same read-out and setting: the figure for `CC1=C2C=CC(C)=[N+]2[B-](F)(F)n2cccc21` is 502 nm.

Staying with this series, now noted: in CS(C)=O.
For the compound `CN(C)c1ccc(C#Cc2nc(-c3ccccc3)nc3ccccc23)cc1`, the emission maximum turned out to be 584 nm. In the case of `CN(C)c1ccc(/C=C/c2ccnc(/C=C/c3ccc(N(C)C)cc3)n2)cc1`, the emission maximum came to 527 nm.

In turn, `CC1(C)C(/C=C/c2cc3ccc(O)cc3oc2=O)=[N+](CCCS(=O)(=O)[O-])c2ccccc21` yielded an emission maximum of 649 nm. On to `C[N+]1=C(/C=C/C=C2/N(CCC[N+](C)(C)C)c3ccc(Br)cc3C2(C)C)C(C)(C)c2ccccc21`, for which the emission maximum came out at 568 nm.

As for `NS(=O)(=O)c1ccc(N2N=C(c3ccc(O)cc3)CC2c2ccc(Br)cc2)cc1` (stereo not given), the emission maximum is 424 nm.

Staying with this series, now noted: in Cc1ccccc1.
On to `CN(C)c1ccc(-c2c(/C=C3/C=Cc4ccccc4N3C)c(=O)c2=O)cc1`, for which the emission maximum was found to be 435 nm. The same measure, in the same setting: the figure for `CN(C)c1ccc(/C=C/c2ccnc(/C=C/c3ccc(N(C)C)cc3)n2)cc1` is 455 nm; for `COc1ccc(-c2nc(-c3ccc(OC)cc3C)nc(-c3ccc(N4c5ccccc5C5(c6ccccc6-c6ccccc65)c5ccccc54)cc3C)n2)c(C)c1` it is 467 nm; for `CC1=C(c2cccs2)C(C)=[N+]2C1=C(c1ccc(OS(=O)(=O)c3ccc([N+](=O)[O-])cc3[N+](=O)[O-])cc1)c1c(C)c(-c3cccs3)c(C)n1[B-]2(F)F` it is 608 nm. The compound `O=C(c1ccncc1)c1ccc(-n2c3ccccc3c3ccccc32)cc1` came in with an emission maximum of 440 nm. `Fc1cccc(F)c1[B-]1(c2c(F)cccc2F)Oc2c(ccc3c4c(ccc23)C=[N+](c2ccccc2)[B-](c2c(F)cccc2F)(c2c(F)cccc2F)O4)C=[N+]1c1ccccc1` displayed an emission maximum of 592 nm. Still for that read-out and setting: the figure for `CC1(C)c2ccccc2N(c2ccc3c(c2)c2ccccc2c2nc4ccccc4nc32)c2ccccc21` is 541 nm; for `CSc1nc(-c2ccc(-n3c4ccccc4c4ccccc43)cc2)cc(-c2ccc(-n3c4ccccc4c4ccccc43)cc2)n1` it is 410 nm; for `N#Cc1ccc(N(c2ccc(C#N)cc2)c2ccc3c4cccc5c(N(c6ccc(C#N)cc6)c6ccc(C#N)cc6)ccc(c6cccc2c63)c54)cc1` it is 513 nm.

In turn, `Fc1c(-n2c3ccccc3c3ccccc32)c(-c2nnc(-c3ccccc3)o2)c(-n2c3ccccc3c3ccccc32)c(-n2c3ccccc3c3ccccc32)c1-n1c2ccccc2c2ccccc21` registered an emission maximum of 483 nm. The same measure, in the same setting: the result for `CCCC1=Cc2nc1ccc1[nH]c(cc1CCOC)c1nc(ccc3[nH]c2cc3CCC)C(CCOC)=C1` reads 642 nm; that for `CCN(CC)c1ccc(-c2ccc(-c3nc(N4CCOCC4)c4ccccc4n3)s2)cc1`, 476 nm.

Staying with this series, now noted: in ClC(Cl)Cl.
Consider `CCN(CC)c1ccc2cc3c([o+]c2c1)/C(=C/Nc1ccccc1)CCC3`, for which the emission maximum was determined as 642 nm. On the same count and under the same terms, the result for `CC1=[N+]2C(=C(c3c4ccccc4cc4ccccc34)c3ccc(/C=C/C(C)(C)C)n3[B-]2(F)F)C=C1` reads 556 nm; that for `CC[n+]1c(C=C2C(=O)C(C=C3N(C)c4ccccc4C3(C)C)=C2[O-])sc2ccccc21`, 666 nm. Same read-out and setting: the figure for `CC1(C)CC(NCc2ccc3ccc4cccc5ccc2c3c45)CC(C)(C)N1[O]` is 376 nm.

Compound `CCCCCCN1C(=O)C(c2ccc(-n3c4ccccc4c4ccccc43)cc2)=C(c2ccc(-n3c4ccccc4c4ccccc43)cc2)C1=O` registered an emission maximum of 626 nm.

Regarding `CCCCCCCCCCCCOc1cc2c3c(ccc4c5c(SCCCCCCCCCCCC)cc6c7c(ccc(c1c34)c75)C(=O)N(C1CCCCC1)C6=O)C(=O)N(C1CCCCC1)C2=O`, the emission maximum is given as 640 nm. Still for that read-out and setting: the figure for `CSc1nc(-c2ccc(-n3c4ccccc4c4ccccc43)cc2)cc(-c2ccc(-n3c4ccccc4c4ccccc43)cc2)n1` is 446 nm.

The same series, now with this note: in ClCCl.
Regarding `COc1ccc2cc([C@H](C)C(=O)O)ccc2c1`, the emission maximum worked out at 353.1 nm. The same measure, in the same setting: the figure for `CN(C)c1ccc(C2=C3C=C(c4ccc(C=O)cc4)S[C@]34c3ccccc3[C@H]2c2ccccc24)cc1` is 645 nm; for `CCN(CC)c1ccc2cc3c([o+]c2c1)/C(=C/Nc1ccccc1)CCC3` it is 647 nm; for `CN(C)c1ccc(C#Cc2nc(-c3ccccc3)nc3ccccc23)cc1` it is 551 nm. The compound `CN(C)c1ccc(-c2c(/C=C3/C=Cc4ccccc4N3C)c(=O)c2=O)cc1` showed an emission maximum of 588 nm.

`O=P1(c2ccccc2)c2ccccc2-c2sc3ccccc3c21` (stereo not given) yielded an emission maximum of 428 nm. Same read-out and setting: the result for `CN(C)c1ccc(/C=C/c2ccnc(/C=C/c3ccc(N(C)C)cc3)n2)cc1` reads 493 nm; that for `COc1ccc(/C=C/C2=[O+][B-](F)(F)OC(/C=C/c3ccc(OC)cc3)=C2c2cccc(OC)c2)cc1`, 556 nm. For `COc1cc2c(cc1OC)C1=C[C@H](c3ccc(C)cc3)C3(C(C#N)=C(C#N)N1CC2)c1cc(Br)ccc1-c1ccc(Br)cc13`, the emission maximum is listed as 405 nm. `CC1=C(Br)C(C)=[N+]2C1=C(c1c(-c3ccccn3)nc3ccccn13)c1c(C)c(Br)c(C)n1[B-]2(F)F` registered an emission maximum of 571 nm. The compound `CC1=C(c2cccs2)C(C)=[N+]2C1=C(c1ccc(OS(=O)(=O)c3ccc([N+](=O)[O-])cc3[N+](=O)[O-])cc1)c1c(C)c(-c3cccs3)c(C)n1[B-]2(F)F` yielded an emission maximum of 607 nm. As to `Fc1cccc(F)c1[B-]1(c2c(F)cccc2F)Oc2c(ccc3c4c(ccc23)C=[N+](c2ccccc2)[B-](c2c(F)cccc2F)(c2c(F)cccc2F)O4)C=[N+]1c1ccccc1`, the emission maximum is given as 585 nm. `CCCCn1c(-c2ccc(-c3nnc(-c4ccccc4)o3)cc2)nc(-c2ccccc2)c1-c1ccccc1` came in with an emission maximum of 441 nm.

For the compound `N#Cc1ccc(N(c2ccc(C#N)cc2)c2ccc3c4cccc5c(N(c6ccc(C#N)cc6)c6ccc(C#N)cc6)ccc(c6cccc2c63)c54)cc1`, the emission maximum is 522 nm. The same measure, in the same setting: the result for `CCCc1cc2c(s1)-c1cc3c(cc1NB2c1ccccc1)-c1sc(CCC)cc1B(c1ccccc1)N3` reads 418 nm; that for `N#CC(C#N)=Cc1ccc(-c2cccc(-c3nc4ccccc4s3)c2O)o1`, 605 nm; that for `CC1=C2C=CC(C)=[N+]2[B-](F)(F)n2cccc21`, 506 nm. The same measure, in the same setting: the figure for `CC(C)[Si](C#Cc1c2cc3ccccc3cc2c(C#C[Si](C)(C)C)c2cc3ccccc3cc12)(C(C)C)C(C)C` is 649 nm.

Staying with this series, now noted: in O.
In the case of `COc1ccc2cc([C@H](C)C(=O)O)ccc2c1`, the emission maximum is 355.5 nm. Same read-out and setting: the figure for `Nc1n[n+]([O-])c2ccccc2[n+]1[O-]` is 545 nm; for `CC1(C)C(/C=C/c2cc3ccc(O)cc3oc2=O)=[N+](CCCS(=O)(=O)[O-])c2ccccc21` it is 620 nm. Same read-out and setting: the figure for `NS(=O)(=O)c1ccc(N2N=C(c3ccc(O)cc3)CC2c2ccc(Br)cc2)cc1` (stereo not given) is 449 nm. On the same count and under the same terms, the figure for `N#CC(C#N)=Cc1ccc(-c2cccc(-c3nc4ccccc4s3)c2O)o1` is 635 nm.

The same series, now with this note: in O=P(c1ccccc1)(c1ccccc1)c1ccccc1Oc1ccccc1P(=O)(c1ccccc1)c1ccccc1.
`COc1ccc(-c2nc(-c3ccc(OC)cc3C)nc(-c3ccc(N4c5ccccc5C5(c6ccccc6-c6ccccc65)c5ccccc54)cc3C)n2)c(C)c1` gave an emission maximum of 469 nm.

The series is the same for the next values; noted with them: in c1cc(-c2cccc(-n3c4ccccc4c4ccccc43)c2)cc(-n2c3ccccc3c3ccccc32)c1.
In turn, `O=C(c1ccncc1)c1ccc(-n2c3ccccc3c3ccccc32)cc1` had an emission maximum of 457.34 nm. The same measure, in the same setting: the result for `CC1(C)c2ccccc2N(c2ccc3c(c2)c2ccccc2c2nc4ccccc4nc32)c2ccccc21` reads 549 nm.

Still in this series, the particulars now being: in c1ccc2c(c1)c1ccccc1n2-c1ccc(-c2ccc(-n3c4ccccc4c4ccccc43)cc2)cc1.
In turn, `CCCCCCN1C(=O)C(c2ccc(-n3c4ccccc4c4ccccc43)cc2)=C(c2ccc(-n3c4ccccc4c4ccccc43)cc2)C1=O` gave an emission maximum of 591 nm.
